Read-outs that look alike come from different tables or passages of the source.
How the values were obtained:
[1] = tested on: castor oil-induced diarrhea; details: cited from earlier work; for activity in castor oil-induced diarrhea model (in words): rodent
[2] = cited from earlier work
[3] = compared with DEHSPM; cited from earlier work
[4] = tested on: diarrhea; details: animal models and clinic; cited from earlier work
[5] = tested on: stress-induced fecal output; test: Psychological stress-induced (water avoidance) IBS model, SC administration; assay type: in vivo; details: for mortality of rats after drug administration: ~24 h post-dosing
From the text: (§1) For drug preparation and administration, the compounds were put into solution with sterile normal saline and sonicated briefly, if necessary. The drugs were made up at concentrations such that the rats received the drugs PO or SC at the rate of 1 cc per kilogram. Mice received the CHX(3,4,3)-trans IP at 1 cc per 100 grams. The solutions were made fresh the day of the study. Control animals received an equivalent amount of saline PO or SC.
Animal care and experimental procedures were approved by the Institutional Animal Care and Use Committee. Male Sprague-Dawley rats (250-350 g, Harlan Sprague-Dawley, Indianapolis, Ind.) were housed in polycarbonate cages in a temperature- and humidity-controlled room with a 12-hour light/dark cycle. The experiments were performed at the same time of the day to decrease diurnal variability. A typical experiment involved 20 rats: 5 saline-treated controls and 5 pretreated with polyamine analogues at each of three doses as either a SC injection or a PO gavage. The rats in the SC studies and in one set of experiments involving PO administration were allowed ad libitum access to a standard rodent diet and tap water until the morning of the experiment. Stress was initiated 30 minutes post drug as described below. In another set of experiments involving PO administration, the animals were fasted overnight but were allowed free access to water. […] In a final experiment, non-stressed control rats were injected with saline SC and housed in individual polycarbonate cages. The fecal output (number of pellets) of the stressed and unstressed animals was recorded at 30-min intervals for a 6-h period, during which they received no food or water.
(§2) To initiate the stress, water was added to each cage to a depth of at least 4.5 cm, i.e., within 0.5 cm of the top of the Pyrex dish. To avoid contact with water, the rats stand on the glass dish for the 6 h of the study. Stool output was expressed as the total number of fecal pellets excreted over the 6-h collection period. Percent reduction was calculated by dividing the mean value from the treated animals (T) by the mean value from the control animals (C), subtracting the resulting quotient from 1.0, and multiplying by 100 [i.e., (1.0−T/C)×100].
(§3) A one-tailed t-test assuming unequal variance was performed on the stool output data of the treated vs control (0 mg/kg) animals for each compound. A value of P<0.05 was considered significant.
The psychological stress-induced IBS model involves subjecting the rats to an aversive stimulus (water) and observing the increase in fecal output over a period of time. […] Control rats received an equivalent amount of saline SC.

[6] = tested on: stress-induced fecal output; test: Psychological stress-induced (water avoidance) IBS model, PO administration by gavage; assay type: in vivo, rat; details: for oral activity against stress-induced fecal output (in words): PO gavage, non-fasted rats, 11.6-115.6 μmol/kg
From the text: as §1
Animal care and experimental procedures were approved by the Institutional Animal Care and Use Committee. Male Sprague-Dawley rats (250-350 g, Harlan Sprague-Dawley, Indianapolis, Ind.) were housed in polycarbonate cages in a temperature- and humidity-controlled room with a 12-hour light/dark cycle. The experiments were performed at the same time of the day to decrease diurnal variability. A typical experiment involved 20 rats: 5 saline-treated controls and 5 pretreated with polyamine analogues at each of three doses as either a SC injection or a PO gavage. The rats in the SC studies and in one set of experiments involving PO administration were allowed ad libitum access to a standard rodent diet and tap water until the morning of the experiment. Stress was initiated 30 minutes post drug as described below. In another set of experiments involving PO administration, the animals were fasted overnight but were allowed free access to water. The animals were then stressed from ½ h to 2 h post-drug (data not shown). In a final experiment, non-stressed control rats were injected with saline SC and housed in individual polycarbonate cages. The fecal output (number of pellets) of the stressed and unstressed animals was recorded at 30-min intervals for a 6-h period, during which they received no food or water.
as §2, with “Once the drug had been administered, the animals were housed individually in polycarbonate cages containing a clear 70×50 mm Pyrex crystallization dish (Fisher, Pittsburgh, Pa.) inverted in the center and held in place with vacuum grease. To initiate” for “To initiate”
as §3
Because an orally active compound would be desirable for the treatment of IBS, selected analogues utilizing oral administration in the same model were assessed. In the initial studies animals were utilized that had been fasted overnight. Rodents were then given the drug of interest PO by gavage and stressed ½ h, 1 h, or 2 h post-drug. Unfortunately, because of the low baseline stool output in fasted control rats, the reductions in fecal output observed upon drug administration cannot be reported with any confidence (data not shown). Thereafter, only non-fasted animals were employed and were given the agents by gavage at doses of 11.6, 23.2, 57.8, or 115.6:mol/kg 30 minutes before initiating the stress. […] At doses of 11.6 and 23.2:mol/kg, CHX(3,4,3)-trans reduced stooling by about 80% (P=0.001 and <0.001, respectively). DEHSPM was effective at a dose of […]:mol/kg (40% diminution of fecal output; P<0.01), and DE(5,4,5) was active at doses of 23.2 and 57.8:mol/kg (55 and 73% reductions in fecal output, respectively; P<0.001 for both doses).

[7] = Acute toxicity assessment, single intraperitoneal injection; assay type: in vivo; details: toxic doses, mice
Protocol: For the acute toxicity assessment the CHX(3,4,3)-trans was administered to female CD-1 mice (Charles River, Wilmington, Mass.) as a single intraperitoneal (IP) injection. The animals were carefully observed post-dosing and were scored 2 h after administration of the drug.
as §1

[8] = tested on: stress-induced fecal output; test: Psychological stress-induced (water avoidance) IBS model, SC administration; assay type: in vivo; details: 57.8 μmol/kg SC; experiment stopped after 2 h, results after 2 h
[9] = mice; N-de-ethylated metabolite of DEHSPM; cited from earlier work
[10] = dog; relative to 2-3 weeks in mice; cited from earlier work
[11] = tested on: constipation-predominant IBS; details: eight patients, 16 mg three times a week, eight weeks; cited from earlier work
[12] = dogs, 4.3 mg/kg/day for 14 days or 2.15 mg/kg/d for 28 days
[13] = 2.3 μmol/kg SC, stress 30 min post drug, 6-h collection
[14] = 11.6 μmol/kg SC, 6-h collection
[15] = 57.8 μmol/kg SC, 6-h collection
[16] = 57.8 μmol/kg SC, listed as DBSPM
[17] = Rattus norvegicus, sc, 2 h, read-out: % Reduction

CCNCC[C@@H](O)CNCCCCNC[C@H](O)CCNCC [(HO)2DEHSPM, (3R, 12R)-N^1,N^14-diethyl-3,12-dihydroxyhomospermine]
activity in castor oil-induced diarrhea model (in words) [1]: considerably decreased stool output
onset of exocrine pancreatic insufficiency post-final dose [2, 12]: approximately 40 days
pancreatic toxicity [2, 12]: exocrine pancreatic insufficiency developed
induction of cardiac bigeminies ([2]; treated dogs): minimal
residence time in most mouse tissues [3]: shorter than that of DEHSPM
antidiarrheal activity (in words) [4]: as effective an antidiarrheal as DEHSPM

CCNCCCNCCCNCCCNCC [Compound 1, N^1,N^11-diethylnorspermine]
Stool Output [5, 13]: 17.4 ± 5.1 number of fecal pellets
Stool Output [5, 14]: 15.2 ± 4.5 number of fecal pellets
Stool Output [5, 15]: 13.4 ± 5.9 number of fecal pellets
activity at diminishing stress-induced fecal output (in words) ([5]; SC administration to stressed rats, listed as DENSPM): completely ineffective
oral activity against stress-induced fecal output (in words) [6]: only CHX(3,4,3)-trans, DEHSPM, and DE(5,4,5) showed any activity at all
activity in castor oil-induced diarrhea model (in words) ([1]; listed as DENSPM): ineffective in reducing stooling

CCNCCCNCCCCNCCCNCC [Compound 3, N^1,N^12 diethylspermine]
Stool Output ([5]; 23.2 μmol/kg SC, 6-h collection): 12.5 ± 2.9 number of fecal pellets
Stool Output ([5]; 35.4 μmol/kg SC, 6-h collection): 9.0 ± 6.3 number of fecal pellets
Stool Output ([5]; 61 μmol/kg SC, 6-h collection): 2.8 ± 2.7 number of fecal pellets
inhibition in vivo at 23.2 µmol/kg ([5]; Rattus norvegicus, 23.2 μmol/kg SC, vs stressed controls, 6 h, read-out: % Reduction): 35%
inhibition in vivo at 35.4 µmol/kg ([5]; Rattus norvegicus, 35.4 μmol/kg SC, vs stressed controls, 6 h, read-out: % Reduction): 53%
inhibition in vivo at 61 µmol/kg ([5]; Rattus norvegicus, 61 μmol/kg SC, vs stressed controls, 6 h, read-out: % Reduction): 90%
oral activity against stress-induced fecal output (in words) [6]: only CHX(3,4,3)-trans, DEHSPM, and DE(5,4,5) showed any activity at all
signs of acute toxicity in mice [7]: generalized depression with respiratory failure

CCCCNCCCNCCCCNCCCNCCCC [Compound 5]
Stool Output [5, 13]: 14.0 ± 4.8 number of fecal pellets
toxic effects observed in stressed rats ([5]; 11.6 μmol/kg SC): ^eDue to severe CNS toxicity, the experiment was stopped after 2 h; the results after 2 h are reported.
Stool Output ([5]; 11.6 μmol/kg SC, experiment stopped after 2 h, results after 2 h): 0 ± 0 number of fecal pellets
% Reduction ([5]; 11.6 μmol/kg SC, experiment stopped after 2 h, results after 2 h, listed as DBSPM): completely eliminated fecal output
toxic effects observed in stressed rats ([5]; 11.6 μmol/kg SC, listed as DBSPM): severe neurotoxicity
toxic effects observed in stressed rats ([5]; 57.8 μmol/kg SC): ^eDue to severe CNS toxicity, the experiment was stopped after 2 h; the results after 2 h are reported.
mortality of rats after drug administration ([5]; 57.8 μmol/kg SC): ^fAll rats in this group died ˜24 h after drug administration.
mortality of rats after drug administration [5, 16]: died within ˜24 h post-dosing
toxic effects observed in stressed rats [5, 16]: severe neurotoxicity
inhibition in vivo at 11.6 µmol/kg [5, 17]: 100%
inhibition in vivo at 57.8 µmol/kg [5, 17]: 100%
inhibition in vivo at 2.3 µmol/kg ([5]; Rattus norvegicus, 2.3 μmol/kg SC, vs stressed controls, 6 h, read-out: % Reduction): 39%
Stool Output [8]: 0 ± 0 number of fecal pellets
neurotoxicity in rats at subtherapeutic doses ([1]; doses equivalent to a 5 mg/kg dose of DEHSPM): Signs of neurotoxicity

CCNCCCCNCCCCNCCCCNCC [Compound 13, N^1,N^14-diethylhomospermine]
Stool Output [5, 14]: 2.1 ± 2.1 number of fecal pellets
Stool Output [5, 15]: 0 ± 0 number of fecal pellets
inhibition in vivo at 11.6 µmol/kg ([5]; Rattus norvegicus, 11.6 μmol/kg SC, vs stressed controls, 6 h, read-out: % Reduction): 89%
inhibition in vivo at 57.8 µmol/kg ([5]; Rattus norvegicus, 57.8 μmol/kg SC, vs stressed controls, 6 h, read-out: % Reduction): 100%
Stool Output ([6]; 115.6 μmol/kg PO, 6-hr collection): 10.6 ± 1.8 number of fecal pellets
% Reduction ([6]; 115.6 μmol/kg PO, vs stressed controls, 6 hr): 40%
diminution of fecal output ([6]; 15.6 :mol/kg PO): 40%
signs of acute toxicity in mice [7]: generalized depression with respiratory failure
time at which arrhythmia was apparent in 6-lead EKG ([2]; SC, dogs, 2 mg/kg daily): as early as three days
cardiac effect ([2]; SC, three dogs, 2 mg/kg daily for 11-17 days): ventricular bigeminies
antidiarrheal activity (in words) [4]: very potent antidiarrheal

NCCCCNCCCCNCCCCN [HSPM, homospermine]
half-life [9]: 2-3 weeks
half-life [10]: even longer

C=C1CCC2(O)C3Cc4ccc(OC5OC(C(=O)O)C(O)C(O)C5O)c5c4C2(CCN3CC2CC2)C1O5 (stereo not shown) [Nalmefene glucuronide]
abdominal pain or bloating [11]: did not reduce abdominal pain or bloating
transit time and stool frequency [11]: decreased transit time and increased stool frequency
